# According to patent US10443089B2, “Methods of multiplexing DNA sensors and localizing DNA sensor” (NATIONAL CENTRE FOR BIOLOGICAL SCIENCES (NCBS-TIFR), priority 2013, dated 2019):
# Entries after “also recorded” stand apart in the source; their conditions may differ.
# B1: clone C1: scFv recombinant antibody from phage display binding dsDNA sequence d(AT)4; SEQ ID No. 16 (protein)
# scFv: MAEVQLLESGGGLVQPGGSLRLSCAASGFTFSSYAMSWVRQAPGKGLEWVSTITKRGERTKYADSVKGRFTISRDNSKNTLYLQMNSLRAEDTAVYYCAKSTRAFDYWGQGTLVTVSSGGGGSGGGGSGGGGSTDIQMTQSPSSLSASVGDRVTITCRASQSISSYLNWYQQKPGKAPKLLIYGASYLQSGVPSRFSGSGSGTDFTLTISSLQPEDFATYYCQQTRFSPNTFGQGTKVEIKRAAAHHHHHHGAAEQKPISEEDLNGAAGGD
# modifications: scFv Protein Sequence; DNA_BIND (1)..(271)
# Columns and labels:
# [1] = test system: scFv-furin expressing IA2.2 cells; experiment: SimpHony of early endosomes and TGN with and without Brefeldin A; type: cell-based, Chinese Hamster; settings: BFA 20 μg/mL, 10 min
# Description: SimpHony is applied on BFA-induced tubules positive for furin marked by I^FuA546/A647 while simultaneously marking transferrin containing endosomes with Tf-I^TfA488/A647. BFA treated cells show tubular extensions emerging from compartments localize near the MTOC (FIG. 18a). Tf-I^TfA488/A647 in these cells occupies the excluded space of I^FuA546/A647 in the region around the MTOC in addition to a few cytoplasmic endosomes (FIG. 19b).
# FIG. 19 depicts localization of Tf-I^Tf and I^Fu DNA sensors in compartments after BFA treatment. scFv-Furin expressing IA2.2 cells are pulsed with about 500 nM I^FuA546/647 for 2 hours and chased for 30 min in presence of CHX followed by absence (a) or presence (b) of BFA (about 20 μg/mL) treatment of about 10 min at about 37° C. Cells are pulsed with about 500 nM Tf-I^TfA488/A647 in presence of BFA and CHX to label early endosomes. Arrowheads show MTOC. Scale Bar: 10 μm.
# FIG. 22 describes the pH heterogeneity of early endosomes and TGN, pre and post treatment with BFA. IA2.2 cells are pulsed with about 500 nM IFuA546/A647 for about 2 hours and chased for 30 min in presence of about 125 ug/ml CHX followed by absence or presence of BFA (about 20 μg/mL) treatment of about 10 min at about 37° C. Cells are further treated with about 500 nM Tf-ITfA488/A647 in presence of about 20 μg/mL BFA and about 125 ug/ml CHX to label early endosomes.
# [2] = test system: IA2.2 cells expressing scFv-furin; experiment: SimpHony of early and late endosomes with and without Dynasore; type: cell-based, Chinese Hamster
# Experimental: The DNA sensor of the present disclosure is applied to this system, by marking early endosomes with about 500 nM Tf-I^TfA488/A647 and late endosomes with about 500 nM I^FuA546/A647 in the presence and absence of Dynasore. I^n the absence of Dynasore, early endosomes undergo active fusion and fission; showing an average pH of about 6.05±0.07 (FIG. 17) while the late endosomes show an average pH of about 5.43±0.3.
# FIG. 17 depicts Dynasore mediated arrest of endosomal fission. Early/sorting and late endosomes in IA2.2 cells expressing scFv-furin are marked with about 500 nM Tf-I^TfA488/A647 at 37° C. for 10 min. Time lapse images of control cells (−Dy) where no dynasore is added, (+Dy) in presence of about 160 μM dynasore and (W) after dynasore is washed out and incubated for about 10 min at about 37° C. for recovery. Images are acquired with a time interval of about 2 s over 2 min period and compressed to a movie playing at 7 fps.
# [3] = Comparison of DNA pH sensors with pH sensitive organic dyes and GFP based probes; settings: for Working regime: pH
# [4] = test system: DNA epitopes ssDNA, dsDNA, R1, R2, RM; experiment: ELISA screen of scFv clones for sequence specific binding to DNA epitopes; settings: epitopes R1, R2, RM of the 35 bp dsDNA; listed as C1
# Experimental: The 35 bp dsDNA is divided into three regions: • (i) One region is composed of 13 bp of the antigen from the 3′ end (known as Region 1 (R1), FIG. 6a, red), • (ii) the second region corresponds to base pairs 16 to 28 from 3′ end (Region 2 (R2), FIG. 6a, green) and • (iii) the third region is an overlap of regions 1 and 2 (Region M (RM), FIG. 6a, blue).
# These three duplexes are annealed and then immobilized on three different 96-well plates. scFv supernatant of the same clones is added to the wells and incubated as described earlier. […] Thus, the scFvs corresponding to these clones recognize only the first 8 base pairs of the 35 bp dsDNA i.e., the sequence d(AT)4.
# In order to screen for sequence specificity of binding to duplex DNA, each of the selected clones are similarly assayed by ELISA to a set of surface-immobilized DNA scaffolds. These correspond to a single stranded DNA sequence comprising only the biotinylated strand of the 35 bp dsDNA the 35 bp dsDNA duplex (dsDNA), and three shorter duplex regions R1, R2 and RM corresponding to various sections on the 35 bp dsDNA duplex. R1 corresponds to a […] region at the 3′ terminus of the biotinylated ssDNA oligonucleotide, R2 correspond to a 13 bp region abutting R1, while RM corresponded to a 13 bp region overlapping the 5′ end of R1 and the 3′ of R2. […]
# 35 bp dsDNA tag, d(AT)4 = experiment: Competitive ELISA, binding affinity of purified scFv to immobilized dsDNA
# Experimental: The binding affinity of this scFv with the 35 bp DNA duplex is assayed using competitive ELISA that is performed using a fixed amount of immobilized dsDNA (25 pmoles) followed by the addition of a fixed concentration of scFv (200 nM) in the presence of an increasing concentration of unlabeled dsDNA (I^comp, about 10 nM to about 1 μM) in solution.
# This experiment is carried out to find strength of binding of clone C1 with DNA. The affinity and specificity of scFv is analyzed by ELISA after purifying the scFv. Streptavidin-coated 96-well plate is incubated with dsDNA epitope used for screening in 5×SSCT (about 75 mM Sodium citrate, about 750 mM NaCl, about 0.05% Tween-20) for about 1.5 hours for immobilization of dsDNA onto the Streptavidin-coated 96-well plate.
# For competition experiments, dsDNA immobilized onto Streptavidin-coated 96-well plate is incubated with the mixture of increasing amount of (from 0 to 10 micromoles) of competing nucleic acid, purified scFv (about 200-300 nM) and 1 in 1000 dilution of anti myc-tag antibody for about 1.5 hours at room temperature. […] Bound scFvs are detected by addition of 100 microliters of 2×TMB/H202 and OD at 450 nm is recorded and normalized with respect to the well where no competitor is added. […]
molecule,measurement,setting,value
C[C@H]1CCC/C=C/[C@@H]2C[C@H](O)C[C@H]2[C@H](O)/C=C/C(=O)O1 [Brefeldin A],morphology of furin containing compartments,[1],tubulate extensively
O=C(N/N=C/c1ccc(O)c(O)c1)c1cc2ccccc2cc1O [Dynasore],average pH of early endosomes after wash out,[2]; Dynasore washed out,completely restored
same,early endosome morphology and dynamics,[2]; presence of 160 μM dynasore,extensive tubulation of the early endosomes as well as their arrested dynamics
O=C1OC2(c3cc(F)c(O)cc3Oc3cc(O)c(F)cc32)c2ccccc21 [Oregon green 488],pKa,[3],4.7
same,Working regime,[3],4.0-5.0
Fluorescein (FITC),Working regime,[3],5-8
B1,DNA epitope specificity by ELISA,[4],binding to R1 and no other region; also recorded: binds a DNA sequence ATATATAT
same,relative binding constant,"35 bp dsDNA tag, d(AT)4; 25 pmoles immobilized dsDNA, 200 nM scFv, competitor I^comp 10 nM to 1 μM",about 1.25×10^7 M^−1
same,Kd,"35 bp dsDNA tag, d(AT)4; 35 bp DNA duplex / d(AT)4",80 nM
